Experimental data taken from patent US20250221410A1, “SUBSTITUTED 2-C-AZINES AND SALTS THEREOF, AND USE THEREOF AS HERBICIDAL ACTIVE SUBSTANCES” (BAYER AKTIENGESELLSCHAFT, priority 2022, published 2025).

Columns and labels:
[1] = tested on: DIGSA: Digitaria sanguinalis; assay: Post-emergence herbicidal efficacy at 80 g/ha, DIGSA; type: in vivo; conditions: visual rating about 3 weeks after treatment vs untreated controls
Method: (§1) Seeds of monocotyledonous and dicotyledonous weeds and crop plants were placed in sandy loam in plastic or organic planting pots, covered with soil and cultivated in a greenhouse under controlled growth conditions. 2 to 3 weeks after sowing, the test plants were treated at the one-leaf stage. The compounds of the invention, formulated in the form of wettable powders (WP) or as emulsion concentrates (EC), were then sprayed onto the green parts of the plants as aqueous suspension or emulsion with addition of 0.5% additive at a water application rate of 600 l/ha (converted). After the test plants had been kept in the greenhouse under optimum growth conditions for about 3 weeks, the activity of the preparations was rated visually in comparison to untreated controls. For example, 100% activity=the plants have died, 0% activity=like control plants. Tables B1 to B10 below show the effects of selected compounds of the general formula (I) according to Table 1 on various harmful plants and an application rate corresponding to 80 g/ha, which were obtained by the experimental procedure mentioned above.

[2] = tested on: AMARE: Amaranthus retroflexus; assay: Pre-emergence herbicide efficacy at 80 g/ha, AMARE; type: in vivo; conditions: scored visually after about 3 weeks
In short: (§2)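 Percent activity (0% = as controls, 100% = plants dead) was read visually around 3 weeks post-treatment. Treatment: covering soil of sown pots sprayed with compound suspension or emulsion, 0.5% additive, water rate equal to 600 l/ha; pots then held in greenhouse.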

[3] = tested on: ALOMY: Alopecurus myosuroides; assay: Post-emergence herbicidal efficacy at 80 g/ha, ALOMY; type: in vivo; conditions: visual rating about 3 weeks after treatment vs untreated controls
Method: as §1

VERPE: Veronica persica [4] = assay: Post-emergence herbicidal efficacy at 80 g/ha, VERPE; type: in vivo; conditions: visual rating about 3 weeks after treatment vs untreated controls
In short: (§3)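 Post-emergence spray, one-leaf stage (2–3 wk after sowing), sandy loam, greenhouse; WP/EC in water + 0.5% additive, 600 l/ha. Visual % activity vs untreated controls at ~3 wk; 100% = plants dead, 0% = like control.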

[5] = tested on: MATIN: Matricaria inodora; assay: Pre-emergence herbicide efficacy at 80 g/ha, MATIN; type: in vivo; conditions: scored visually after about 3 weeks
From the text: (§4) Seeds of monocotyledonous and dicotyledonous weed plants and crop plants were placed in plastic or organic planting pots and covered with soil. The compounds of the invention, formulated in the form of wettable powders (WP) or as emulsion concentrates (EC), were then applied to the surface of the covering soil as aqueous suspension or emulsion with addition of 0.5% additive at a water application rate equivalent to 600 l/ha. After the treatment, the pots were placed in a greenhouse and kept under good growth conditions for the test plants. After about 3 weeks, the efficacy of the preparations was scored visually in comparison with untreated controls as percentages. For example, 100% activity=the plants have died, 0% activity=like control plants. Tables D1 to D12 below show the effects of selected compounds of the general formula (I) according to Table 1 on various harmful plants and an application rate corresponding to 80 g/ha, which were obtained by the experimental procedure mentioned above.

[6] = tested on: ABUTH: Abutilon theophrasti; assay: Pre-emergence herbicide efficacy at 80 g/ha, ABUTH; type: in vivo; conditions: scored visually after about 3 weeks
In short: as §2

[7] = tested on: AMARE: Amaranthus retroflexus; assay: Post-emergence herbicidal efficacy at 80 g/ha, AMARE; type: in vivo; conditions: visual rating about 3 weeks after treatment vs untreated controls
In short: as §3

[8] = tested on: ALOMY: Alopecurus myosuroides; assay: Pre-emergence herbicide efficacy at 80 g/ha, ALOMY; type: in vivo; conditions: scored visually after about 3 weeks
From the text: as §4

POLCO [9] = assay: Pre-emergence herbicide efficacy at 80 g/ha, POLCO; type: in vivo; conditions: Polygonum convolvulus, scored visually after about 3 weeks
In short: as §2

VERPE: Veronica persica [10] = assay: Pre-emergence herbicide efficacy at 80 g/ha, VERPE; type: in vivo; conditions: scored visually after about 3 weeks
In short: as §2

POLCO [11] = assay: Post-emergence herbicidal efficacy at 80 g/ha, POLCO; type: in vivo, Polygonum convolvulus; conditions: visual rating about 3 weeks after treatment vs untreated controls
Method: as §1

LOLRI: Lolium rigidum = assay: Pre-emergence herbicide efficacy at 80 g/ha, LOLRI; type: in vivo; conditions: scored visually after about 3 weeks
From the text: as §4

[12] = tested on: ECHCG: Echinochloa crus-galli; assay: Post-emergence herbicidal efficacy at 80 g/ha, ECHCG; type: in vivo; conditions: visual rating about 3 weeks after treatment vs untreated controls
Method: as §1

SETVI: Setaria viridis [13] = assay: Post-emergence herbicidal efficacy at 80 g/ha, SETVI; type: in vivo; conditions: visual rating about 3 weeks after treatment vs untreated controls
Method: as §1

SETVI: Setaria viridis [14] = assay: Pre-emergence herbicide efficacy at 80 g/ha, SETVI; type: in vivo; conditions: scored visually after about 3 weeks
From the text: as §4

[15] = tested on: ABUTH: Abutilon theophrasti; assay: Post-emergence herbicidal efficacy at 80 g/ha, ABUTH; type: in vivo; conditions: rated visually after about 3 weeks vs untreated controls, 100% = plants have died, 0% = like control plants
Method: as §1

[16] = tested on: ECHCG: Echinochloa crus-galli; assay: Pre-emergence herbicide efficacy at 80 g/ha, ECHCG; type: in vivo; conditions: scored visually after about 3 weeks
From the text: as §4

[17] = tested on: DIGSA: Digitaria sanguinalis; assay: Pre-emergence herbicide efficacy at 80 g/ha, DIGSA; type: in vivo; conditions: scored visually after about 3 weeks
In short: as §2

FC(F)c1cc(-c2c(Cl)cccc2Cc2ncc(Cl)cn2)on1 [Example 1-140]
90%: Post-emergence efficacy against DIGSA [1] | Pre-emergence efficacy against ALOMY in % [8] | Pre-emergence efficacy against POLCO in % (POLCO [9]) | Pre-emergence efficacy against LOLRI in % (LOLRI: Lolium rigidum) | Post-emergence efficacy against ECHCG [12]
100%: Pre-emergence efficacy against AMARE in % [2] | Post-emergence efficacy against VERPE (VERPE: Veronica persica [4]) | Pre-emergence efficacy against ABUTH in % [6] | Post-emergence efficacy against AMARE [7] | Pre-emergence efficacy against VERPE in % (VERPE: Veronica persica [10]) | Post-emergence efficacy against POLCO (POLCO [11]) | Pre-emergence efficacy against SETVI in % (SETVI: Setaria viridis [14]) | Post-emergence efficacy at 80 g/ha against ABUTH in % [15] | Pre-emergence efficacy against ECHCG in % [16] | Pre-emergence efficacy against DIGSA in % [17]
80%: Post-emergence efficacy against ALOMY [3] | Pre-emergence efficacy against MATIN in % [5] | Post-emergence efficacy against SETVI (SETVI: Setaria viridis [13])
